The conditions of data set [1]: cited from earlier work.
Data set [2] is described as follows: Stability study: degradation products by HPLC-UV. Format: physicochemical. Particulars: pre-stressed sample, elevated temperature and light. On the procedure: • nicotine release at 30 min • degradation product Pouch samples from Example 1 were stored in a plastic container with closed (but not hermetically sealed) lid at 21-22° C./60-62% RH for up to 3 months. The release of nicotine at 30 min for the pouch product stored for 1 month at 21-22° C./60-62% RH was analyzed, using the UV spectrophotometrical method described above.
Pouch samples from Example 1 were also analyzed for the detection of potential degradation products, using HPLC-UV method (Agilent 1200 series HPLC). Samples with the same excipients but without the nicotine API and samples with the nicotine API was used to identify reference (blank) peaks. A pre-stressed sample of nicotine was prepared (using elevated temperature and light) to reveal any peaks originating from heat- and light-induced degradation of nicotine. […] The obtained peaks in the chromatogram corresponds to nicotine or solvent injection peak. The chromatogram from the HPLC-UV analysis of pre-stressed sample of nicotine (FIG. 5A), which was compared to the chromatogram of nicotine bitartrate dihydrate spiked into the reference sample without API (FIG. 5B).

Molecules are shown by their SMILES. Where two headings read alike, the source gives them in different places.

Take `CC1=CC(=O)NS(=O)(=O)O1` [Acesulfame K, Acesulfame potassium]: the Solubility in water in data set [1] (at 20° C.) is 270 mg/ml at 20 °C. In addition, the “Solubility in water (descriptive)” value in data set [1] is recorded as “High solubility:”. In the case of `OC[C@@H](O)[C@@H](O)[C@H](O)[C@H](O)CO` [D-Mannitol], the Solubility in water in data set [1] (at 25° C.) was 216 mg/ml at 25 °C. Also, the “Solubility in water (descriptive)” value in data set [1] was “Very soluble”. Consider `CC(C)[C@@H]1CC[C@@H](C)C[C@H]1O` [L-Menthol], for which the “Solubility in water (descriptive)” value in data set [1] was “Low soluble”.

For `CC(O)CO` (centres unmarked) [Propylene glycol], the “Solubility in water (descriptive)” value in data set [1] is listed as “Soluble”. Turning to `OC[C@@H](O)[C@H](O)[C@@H](O)CO` [Xylitol], the “Solubility in water (descriptive)” value in data set [1] is recorded as “Very soluble”.

`CN1CCCC1c1cccnc1` (centres unmarked) [nicotine]: the “peaks from potential degradation products (HPLC-UV)” value in data set [2] was “No additional peaks from potential degradation products”.

These data come from patent US20220354840A1, “NICOTINE POUCH” (Enorama Pharma AB, priority 2019, published 2022).
